Experimental data published in US20130274210A1, “DENDRIMERS WITH A SACCHARIDE ENDING FOR ANTI-INFLAMMATORY PURPOSES” (UNIVERSITE PAUL SABATIER TOULOUSE III, priority 2010, published 2013).

Columns and labels:
[1] = Solubility (properties of prepared molecules); type: physicochemical
[2] = system: human dendritic cells stimulated with LPS; details: stimulation by LPS, via DC-SIGN receptor; background statement; cited from earlier work

Molecule	solubility [1]	production of IL-10 by human dendritic cells [2]	production of pro-inflammatory cytokines by human dendritic cells [2]
NNC(=O)CCCCCCCCOC1OC(CO)C(O)C(O)C1OC1OC(CO)C(O)C(O)C1O (centres unmarked)	soluble in H2O, MeOH, DMF	–	–
Mannosylated lipoarabinomannan [ManLAM]	–	increase in the production of IL-10	decrease in the production of pro-inflammatory cytokines
NNC(=O)CCCCCCCCOC1OC(CO)C(O)C(O)C1OC1OC(CO)C(O)C(O)C1OC1OC(CO)C(O)C(O)C1O (centres unmarked)	soluble in H2O, MeOH, DMF	–	–
NNC(=O)CCOC1OC(CO)C(O)C(O)C1O (centres unmarked)	soluble in H2O, MeOH, DMF	–	–
